In test [1] the target is T1, Recombinant human liver GK1 (GST-GK) (Homo sapiens, UniProt P35557).
T1 construct: made in house; host or cells: E. coli
T1 sequence (P35557 1-466 isoform P35557-2): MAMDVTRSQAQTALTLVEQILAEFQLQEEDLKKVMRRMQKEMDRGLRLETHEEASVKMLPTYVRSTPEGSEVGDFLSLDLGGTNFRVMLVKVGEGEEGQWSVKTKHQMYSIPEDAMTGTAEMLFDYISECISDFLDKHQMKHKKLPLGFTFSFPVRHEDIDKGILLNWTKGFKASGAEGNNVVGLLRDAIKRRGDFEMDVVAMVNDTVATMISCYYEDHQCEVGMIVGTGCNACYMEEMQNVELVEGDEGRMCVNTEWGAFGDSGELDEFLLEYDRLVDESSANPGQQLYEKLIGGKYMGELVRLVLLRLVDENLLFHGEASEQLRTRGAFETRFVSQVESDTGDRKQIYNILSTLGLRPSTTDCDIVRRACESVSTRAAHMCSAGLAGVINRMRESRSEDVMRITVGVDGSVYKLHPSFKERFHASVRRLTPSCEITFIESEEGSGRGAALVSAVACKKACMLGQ
Briefly: Glucokinase in vitro assay (G6PDH-coupled, NADH generation, OD340). The format is biochemical. As to conditions: 30° C., 5 mM D-glucose, 10% dimethylsulfoxide. On the procedure: Glucokinase In Vitro Assay Protocol:
Glucokinase (GK) was assayed by coupling the production of glucose-6-phosphate to the generation of NADH with glucose-6-phosphate dehydrogenase (G6PDH, 0.75-1 kunits/mg; Boehringer Mannheim, Indianapolis, Ind.) from Leuconostoc mesenteroides as the coupling enzyme (Scheme 2).
Recombinant human liver GK1 was expressed in E. coli as a glutathione S-transferase fusion protein (GST-GK) and was purified by chromatography over a glutathione-Sepharose 4B affinity column using the procedure provided by the manufacturer (Amersham Pharmacia Biotech, Piscataway, N.J.).
The assay was conducted at 30° C. in a flat bottom 96-well tissue culture plate from Costar (Cambridge, Mass.) with a final incubation volume of 120 μL. The incubation reaction contained the following: 25 mM Hepes buffer (pH 7.1), 25 mM KCl, 5 mM D-glucose, 1 mM ATP, 1.8 mM NAD, 2 mM MgCl2, 1 μM sorbitol-6-phosphate, 1 mM dithiothreitol, test drug or 10% dimethylsulfoxide, ˜7 units/ml G6PDH, and GK (see below). All organic reagents were >98% pure and were from Boehringer Mannheim with the exceptions of D-glucose and Hepes which were from Sigma Chemical Co, St Louis, Mo. Test compounds were dissolved in dimethylsulfoxide and were added to the incubation reaction minus GST-GK in a volume of 12 μL to yield a final dimethylsulfoxide concentration of 10%. This mix was pre-incubated in the temperature controlled chamber of a SPECTRAmax 250 microplate spectrophotometer (Molecular Devices Corporation, Sunnyvale, Calif.) for 10 minutes to allow temperature equilibrium and then the reaction was started by the addition of 20 μL GST-GK.
After addition of enzyme, the increase in optical density (OD) at 340 nm was monitored spectrophotometrically to determine the rate of change (OD340 per min). The GK activity (OD340/min) in control wells (10% dimethylsulfoxide minus GK activators) was compared with the activity in wells containing test GK activators, and the concentration of activator that produced a 50% increase in the activity of GK, i.e., the SC1.5, was calculated.

The next test concerns C57BL/6J mice. Briefly: Glucokinase activator in vivo screen: blood glucose lowering after oral gavage in mice. As to conditions: Mus musculus, C57B6 mice, read-out: % gluc lowering @ 2 H; for change in vivo at 25 mg/kg: vs. control at 2 hours post 25 mg/kg oral dose. How it is done:
Glucokinase Activator In Vivo Screen Protocol in Lean Mice:
Lean C57BL/6J mice were orally dosed via gavage with Glucokinase (GK) activator following a two hour fasting period. Blood glucose determinations were made at various (e.g. 0, 1, 2, 4 and 8 hours post-oral gavage) times during the study.
C57Bl/6J mice were obtained from Jackson Laboratory (Bar Harbor, Me.) and were maintained in a light-dark cycle with lights on from 0600-1800 hr. For studies in lean mice, the mice were received at age ten weeks and given ad libitum access to control diet (LabDiet 5001 chow, PMI Nutrition, Brentwood, Mo.), and were at least age 11 weeks at the time of study. For studies in the DIO model, the mice were received at age five weeks and given ad libitum access to Bio-Sery F3282 High Fat Diet (Frenchtown, N.J.), and were at least age 16 weeks at the time of study. The experiments were conducted during the light phase of the light-dark cycle. Mice (n=6) are weighed and fasted for a two hour period prior to oral treatment. GK activators are formulated in Gelucire vehicle (Ethanol:Gelucire44/14:PEG400q.s. 4:66:30 v/w/v). For studies in lean mice, the mice were dosed orally with 5.0 μL per gram of body weight (i.e. 5 ml/kg×10.0 mg/ml formulation to equal a 50 mg/kg dose). For studies in DIO mice, the mice were dosed orally with 5.0 μL per gram of body weight (i.e. 5.0 ml/kg×5 mg/ml formulation to equal a 25 mg/kg dose). Immediately prior to dosing, a pre-dose (time zero) blood glucose reading was acquired by snipping off a small portion of the animal's tail and collecting 15 μL blood into a heparinized capillary tube for analysis. Following GK activator administration, additional blood glucose readings were taken at various time points post dose from the same tail wound. Results were interpreted by comparing the mean blood glucose values of vehicle treated mice with GK activator treated mice over the study period.
Table 2 below provides data for % glucose lowering of a representative number of compounds of the present invention vs. control at 2 hours post 25 or 50 mg/kg dose in C57B6 mice: […]

On to `O=C(Nc1ccn(C[C@H](O)CO)n1)[C@H](CC1CCCC1)N1Cc2c(cccc2C(F)(F)F)C1=O` [Example 6, (S)-3-Cyclopentyl-N-[1-((S)-2,3-dihydroxy-propyl)-1H-pyrazol-3-yl]-2-(1-oxo-4-trifluoromethyl-1,3-dihydro-isoindol-2-yl)-propionamide], for which the “SC1.5 (concentration of activator that produced a 50% increase in the activity of GK)” value in test [1] came out at 0.119 µM. For the same compound, the change in vivo at 25 mg/kg with C57BL/6J mice is -48.3%.

On to `COC(C)(C)Cn1ccc(NC(=O)[C@H](CC2CCCC2)N2Cc3c(cccc3C(F)(F)F)C2=O)n1` [Example 7, (S)-3-Cyclopentyl-N-[1-(2-methoxy-2-methyl-propyl)-1H-pyrazol-3-yl]-2-(1-oxo-4-trifluoromethyl-1,3-dihydro-isoindol-2-yl)-propionamide], for which the “SC1.5 (concentration of activator that produced a 50% increase in the activity of GK)” value in test [1] stood at 0.032 µM. Further, in the test on C57BL/6J mice, the change in vivo at 25 mg/kg was -48.2%.

`COCCn1ccc(NC(=O)[C@H](CC2CCCC2)N2Cc3c(cccc3C(F)(F)F)C2=O)n1` [Example 13, (S)-3-Cyclopentyl-N-[1-(2-methoxy-ethyl)-1H-pyrazol-3-yl]-2-(1-oxo-4-trifluoromethyl-1,3-dihydro-isoindol-2-yl)-propionamide]: in test [1], the “SC1.5 (concentration of activator that produced a 50% increase in the activity of GK)” value was determined as 0.328 µM. Besides, the change in vivo at 50 mg/kg in the test with C57BL/6J mice (vs. control at 2 hours post 50 mg/kg oral dose) is -45.2%.

With `O=C(Nc1cnccn1)[C@H](CC1CCCC1)N1Cc2c(cccc2C(F)(F)F)C1=O` [Example 15, (S)-3-Cyclopentyl-2-(1-oxo-4-trifluoromethyl-1,3-dihydro-isoindol-2-yl)-N-pyrazin-2-yl-propionamide], the “SC1.5 (concentration of activator that produced a 50% increase in the activity of GK)” value in test [1] is 0.176 µM. Moreover, in the test on C57BL/6J mice, the change in vivo at 25 mg/kg was -22.5%.

On to `CC(C)OCCn1ccc(NC(=O)[C@H](CC2CCCC2)N2Cc3c(cccc3C(F)(F)F)C2=O)n1` [Example 17, (S)-3-Cyclopentyl-N-[1-(2-isopropoy-ethyl)-1H-pyrazol-3-yl]-2-(1-oxo-4-trifluoromethyl-1,3-dihydro-isoindol-2-yl)-propionamide], for which the “SC1.5 (concentration of activator that produced a 50% increase in the activity of GK)” value in test [1] came out at 0.179 µM. Besides, the change in vivo at 25 mg/kg in the test on C57BL/6J mice is -40.2%.

As for `COCCn1ccc(NC(=O)[C@H](CC2CCCCC2)N2Cc3c(F)cccc3C2=O)n1` [Example 18, (S)-3-Cyclohexyl-2-(4-fluoro-1-oxo-1,3-dihydro-isoindol-2-yl)-N-[1-(2-methoxy-ethyl)-1H-pyrazol-3-yl]-propionamide], the “SC1.5 (concentration of activator that produced a 50% increase in the activity of GK)” value in test [1] turned out to be 0.962 µM. Besides, the change in vivo at 25 mg/kg in the test with C57BL/6J mice was -25.4%.

On to `O=C(Nc1cnc([C@H](O)CO)cn1)[C@H](CC1CCCC1)N1Cc2c(cccc2C(F)(F)F)C1=O` [Example 21, (S)-3-Cyclopentyl-N-[5-((S)-1,2-dihydroxy-ethyl)-pyrazin-2-yl]-2-(1-oxo-4-trifluoromethyl-1,3-dihydro-isoindol-2-yl)-propionamide], for which the “SC1.5 (concentration of activator that produced a 50% increase in the activity of GK)” value in test [1] was found to be 0.255 µM. For the same compound, the change in vivo at 25 mg/kg in the test with C57BL/6J mice was -36.6%.

The record behind these values is US8697705B2, “Isoindolinone derivatives” (Hoffmann-La Roche Inc., priority 2011, dated 2014).
